Laboratory results taken from patent publication US20250230193A1, “CYCLIC COMPOUND HAVING SELECTIVE KRAS INHIBITORY EFFECT ON HRAS AND NRAS” (CHUGAI SEIYAKU KABUSHIKI KAISHA, priority 2022, published 2025).

Experiments:
[1] = target: GDP-bound NRAS wild-type protein (Homo sapiens, UniProt P01111); assay: Binding to NRAS by surface plasmon resonance (SPR), Single Cycle Kinetics; settings: SPR, GDP-bound NRAS wild-type vs GDP-bound KRAS wild-type
[2] = target: GDP-bound HRAS wild-type protein (Homo sapiens, UniProt P01112); assay: Binding to HRAS by surface plasmon resonance (SPR), Single Cycle Kinetics; settings: SPR, GDP-bound HRAS wild-type vs GDP-bound KRAS wild-type
Chain of GDP-bound HRAS wild-type protein (P01112 whole entry): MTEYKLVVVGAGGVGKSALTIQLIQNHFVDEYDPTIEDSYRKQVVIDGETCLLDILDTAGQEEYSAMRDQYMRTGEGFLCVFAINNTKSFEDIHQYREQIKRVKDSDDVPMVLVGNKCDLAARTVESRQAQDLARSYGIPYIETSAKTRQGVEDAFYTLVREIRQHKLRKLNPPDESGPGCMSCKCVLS

Chain of GDP-bound NRAS wild-type protein (P01111 whole entry): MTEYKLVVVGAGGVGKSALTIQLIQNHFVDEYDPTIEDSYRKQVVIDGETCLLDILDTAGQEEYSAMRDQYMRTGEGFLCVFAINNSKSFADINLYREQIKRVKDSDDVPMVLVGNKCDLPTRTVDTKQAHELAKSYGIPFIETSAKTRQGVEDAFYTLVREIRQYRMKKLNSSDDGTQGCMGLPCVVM

Structure (SMILES)	NRAS/KRAS (ratio of KD value with respect to NRAS to KD value with respect to KRAS) [1]	HRAS/KRAS (ratio of KD value with respect to HRAS to KD value with respect to KRAS) [2]
CCOC[C@H]1C(=O)N[C@@H]([C@@H](C)CC)C(=O)N(C2CC2)CC(=O)N(C)[C@H]2C/C=C\CCN(C2=O)[C@@H](Cc2ccc(C(F)(F)F)cc2)C(=O)N(C)CC(=O)N[C@@H](CCc2ccc(C(F)(F)F)c(OC)c2)C(=O)N2C[C@H](OCC)C[C@H]2C(=O)N(C)C2(CCC2)C(=O)N(C)[C@@H](C(CC)CC)C(=O)N(C)[C@H](C(=O)N(C)C)CC(=O)N1C [PP2315]	A (a compound having 10 or more and less than 20 is denoted as A)	A (a compound having 10 or more and less than 20 is denoted as A)
CCC[C@H]1C(=O)N[C@@H]([C@@H](C)CC)C(=O)N(C2CC2)CC(=O)N(C)[C@H]2C/C=C\CCN(C2=O)[C@@H](Cc2ccc(C(F)(F)F)cc2)C(=O)N(C)CC(=O)N[C@@H](CCc2ccc(C(F)(F)F)c(OC)c2)C(=O)N2C[C@H](OCC)C[C@H]2C(=O)N(C)C2(CCC2)C(=O)N(C)[C@@H](C2CCCC2)C(=O)N(C)[C@H](C(=O)N(C)C)CC(=O)N1C [PP2316, (2S,8S,12R,14S,20S,23S,27S,30S,36S,38Z)-20-cyclopentyl-32-cyclopropyl-12-ethoxy-8-[2-[3-methoxy-4-(trifluoromethyl)phenyl]ethyl]-N,N,4,16,19,22,26,35-octamethyl-30-[(1S)-1-methylpropyl]-3,6,9,15,18,21,25,28,31,34,42-undecaoxo-27-propyl-2-[[4-(trifluoromethyl)phenyl]methyl]spiro[1,4,7,10,16,19,22,26,29,32,35-undecazatricyclo[34.5.1.0^10,14]dotetracont-38-ene-17,1′-cyclobutane]-23-carboxamide]	A (a compound having 10 or more and less than 20 is denoted as A)	A (a compound having 10 or more and less than 20 is denoted as A)
CCC[C@H]1C(=O)N[C@@H]([C@@H](C)CC)C(=O)N2CCC[C@H]2C(=O)N(C)[C@H]2C/C=C\CCN(C2=O)[C@@H](Cc2ccc(C(F)(F)F)cc2)C(=O)N(C)CC(=O)N[C@@H](CCc2ccc(C(F)(F)F)c(OC)c2)C(=O)N2C[C@H](OCC)C[C@H]2C(=O)N(C)C2(CCC2)C(=O)N(C)[C@@H](C(CC)CC)C(=O)N(C)[C@H](C(=O)N(C)C)CC(=O)N1C [PP2317]	A (a compound having 10 or more and less than 20 is denoted as A)	A (a compound having 10 or more and less than 20 is denoted as A)
CCCOC[C@H]1C(=O)N[C@@H]([C@@H](C)CC)C(=O)N(C2CC2)CC(=O)N(C)[C@H]2C/C=C\CCN(C2=O)[C@@H](Cc2ccc(C(F)(F)F)cc2)C(=O)N(C)CC(=O)N[C@@H](CCc2ccc(C(F)(F)F)c(OC)c2)C(=O)N2C[C@H](OCC)C[C@H]2C(=O)N(C)C2(CCC2)C(=O)N(C)[C@@H](C2CCCC2)C(=O)N(C)[C@H](C(=O)N(C)C)CC(=O)N1C [PP2318]	A (a compound having 10 or more and less than 20 is denoted as A)	A (a compound having 10 or more and less than 20 is denoted as A)
CCOC[C@H]1C(=O)N[C@@H]([C@@H](C)CC)C(=O)N2CCC[C@H]2C(=O)N(C)[C@H]2C/C=C\CCN(C2=O)[C@@H](Cc2ccc(C(F)(F)F)cc2)C(=O)N(C)CC(=O)N[C@@H](CCc2ccc(C(F)(F)F)c(OC)c2)C(=O)N2C[C@H](OCC)C[C@H]2C(=O)N(C)C2(CCC2)C(=O)N(C)[C@@H](C(CC)CC)C(=O)N(C)[C@H](C(=O)N(C)C)CC(=O)N1C [PP2319]	AA (a compound having 20 or more is denoted as AA)	A (a compound having 10 or more and less than 20 is denoted as A)
CCC[C@H]1C(=O)N[C@@H]([C@@H](C)CC)C(=O)N2CCC[C@H]2C(=O)N(C)[C@H]2C/C=C\CCN(C2=O)[C@@H](Cc2ccc(C(F)(F)F)cc2)C(=O)N(C)CC(=O)N[C@@H](CCc2ccc(C(F)(F)F)c(OC)c2)C(=O)N2C[C@H](OCC)C[C@H]2C(=O)N(C)C2(CCC2)C(=O)N(C)[C@@H](C2CCCC2)C(=O)N(C)[C@H](C(=O)N(C)C)CC(=O)N1C [PP2320, (1S,4S,10S,13S,17S,20S,26S,28R,32S,38S,42Z)-20-cyclopentyl-28-ethoxy-32-[2-[3-methoxy-4-(trifluoromethyl)phenyl]ethyl]-N,N,2,14,18,21,24,36-octamethyl-10-[(1S)-1-methylpropyl]-3,9,12,15,19,22,25,31,34,37,45-undecaoxo-13-propyl-38-[[4-(trifluoromethyl)phenyl]methyl]spiro[2,8,11,14,18,21,24,30,33,36,39-undecazatetracyclo[37.5.1.0^4,8.0^26,30]pentatetracont-42-ene-23,1′-cyclobutane]-17-carboxamide]	A (a compound having 10 or more and less than 20 is denoted as A)	A (a compound having 10 or more and less than 20 is denoted as A)
CCCOC[C@H]1C(=O)N[C@@H]([C@@H](C)CC)C(=O)N2CCC[C@H]2C(=O)N(C)[C@H]2C/C=C\CCN(C2=O)[C@@H](Cc2ccc(C(F)(F)F)cc2)C(=O)N(C)CC(=O)N[C@@H](CCc2ccc(C(F)(F)F)c(OC)c2)C(=O)N2C[C@H](OCC)C[C@H]2C(=O)N(C)C2(CCC2)C(=O)N(C)[C@@H](C2CCCC2)C(=O)N(C)[C@H](C(=O)N(C)C)CC(=O)N1C [PP2322]	A (a compound having 10 or more and less than 20 is denoted as A)	B (a compound having 3 or more and less than 10 is denoted as B)
CCCOC[C@H]1C(=O)N[C@@H]([C@@H](C)CC)C(=O)N(C)CC(=O)N(C)[C@H]2C/C=C\CCN(C2=O)[C@@H](Cc2ccc(C)cc2)C(=O)N(C)CC(=O)N[C@@H](CCc2ccc(C(F)(F)F)c(OC)c2)C(=O)N2C[C@H](OCC)C[C@H]2C(=O)N(C)C2(CCC2)C(=O)N(C)[C@@H](C(CC)CC)C(=O)N(C)[C@H](C(=O)N(C)C)CC(=O)N1C [PP2323]	A (a compound having 10 or more and less than 20 is denoted as A)	A (a compound having 10 or more and less than 20 is denoted as A)
CCC[C@H]1C(=O)N[C@@H]([C@@H](C)CC)C(=O)N(C2CC2)CC(=O)N(C)[C@H]2C/C=C\CCN(C2=O)[C@@H](Cc2ccc(C)cc2)C(=O)N(C)CC(=O)N[C@@H](CCc2ccc(C(F)(F)F)c(OC)c2)C(=O)N2C[C@H](OCC)C[C@H]2C(=O)N(C)C2(CCC2)C(=O)N(C)[C@@H](C(CC)CC)C(=O)N(C)[C@H](C(=O)N(C)C)CC(=O)N1C [PP2325]	A (a compound having 10 or more and less than 20 is denoted as A)	A (a compound having 10 or more and less than 20 is denoted as A)
CCCOC[C@H]1C(=O)N[C@@H]([C@@H](C)CC)C(=O)N(C)CC(=O)N(C)[C@H]2C/C=C\CCN(C2=O)[C@@H](Cc2ccc(C)cc2)C(=O)N(C)CC(=O)N[C@@H](CCc2ccc(C(F)(F)F)c(OC)c2)C(=O)N2C[C@H](OCC)C[C@H]2C(=O)N(C)C2(CCC2)C(=O)N(C)[C@@H](C2CCCC2)C(=O)N(C)[C@H](C(=O)N(C)C)CC(=O)N1C [PP2326]	A (a compound having 10 or more and less than 20 is denoted as A)	B (a compound having 3 or more and less than 10 is denoted as B)
CCCOC[C@H]1C(=O)N[C@@H]([C@@H](C)CC)C(=O)N(C2CC2)CC(=O)N(C)[C@H]2C/C=C\CCN(C2=O)[C@@H](Cc2ccc(C)cc2)C(=O)N(C)CC(=O)N[C@@H](CCc2ccc(C(F)(F)F)c(OC)c2)C(=O)N2C[C@H](OCC)C[C@H]2C(=O)N(C)C2(CCC2)C(=O)N(C)[C@@H](C(CC)CC)C(=O)N(C)[C@H](C(=O)N(C)C)CC(=O)N1C [PP2327]	A (a compound having 10 or more and less than 20 is denoted as A)	A (a compound having 10 or more and less than 20 is denoted as A)
CCC[C@H]1C(=O)N[C@@H]([C@@H](C)CC)C(=O)N(C2CC2)CC(=O)N(C)[C@H]2C/C=C\CCN(C2=O)[C@@H](Cc2ccc(C)cc2)C(=O)N(C)CC(=O)N[C@@H](CCc2ccc(C(F)(F)F)c(OC)c2)C(=O)N2C[C@H](OCC)C[C@H]2C(=O)N(C)C2(CCC2)C(=O)N(C)[C@@H](C2CCCC2)C(=O)N(C)[C@H](C(=O)N(C)C)CC(=O)N1C [PP2328, (2S,8S,12R,14S,20S,23S,27S,30S,36S,38Z)-20-cyclopentyl-32-cyclopropyl-12-ethoxy-8-[2-[3-methoxy-4-(trifluoromethyl)phenyl]ethyl]-N,N,4,16,19,22,26,35-octamethyl-30-[(1S)-1-methylpropyl]-3,6,9,15,18,21,25,28,31,34,42-undecaoxo-27-propyl-2-(p-tolylmethyl)spiro[1,4,7,10,16,19,22,26,29,32,35-undecazatricyclo[34.5.1.0^10,14]dotetracont-38-ene-17,1′-cyclobutane]-23-carboxamide]	A (a compound having 10 or more and less than 20 is denoted as A)	A (a compound having 10 or more and less than 20 is denoted as A)
CCC[C@H]1C(=O)N[C@@H]([C@@H](C)CC)C(=O)N2CCC[C@H]2C(=O)N(C)[C@H]2C/C=C\CCN(C2=O)[C@@H](Cc2ccc(C)cc2)C(=O)N(C)CC(=O)N[C@@H](CCc2ccc(C(F)(F)F)c(OC)c2)C(=O)N2C[C@H](OCC)C[C@H]2C(=O)N(C)C2(CCC2)C(=O)N(C)[C@@H](C(CC)CC)C(=O)N(C)[C@H](C(=O)N(C)C)CC(=O)N1C [PP2329]	A (a compound having 10 or more and less than 20 is denoted as A)	A (a compound having 10 or more and less than 20 is denoted as A)
